Results taken from US20240389591A1, “CRYSTALLINE FORMS OF METHYL 2-[2-[2-BROMO-4-FLUORO-5-[3-METHYL-2,6-DIOXO-4-(TRIFLUOROMETHYL)PYRIMIDIN-1-YL]PHENOXY]PHENOXY]-2-METHOXY-ACETATE” (BASF SE, priority 2021, published 2024).

Experiments:
Lolium multiflorum = assay: Greenhouse herbicidal activity, post-emergence treatment; type: in vivo; details: assessment 20 DAT, aqueous SC 8.33 w/v %, scale 0-100
Excerpt: (§1) The culture containers used were plastic flowerpots containing loamy sand with approximately 3.0% of humus as the substrate. The seeds of the test plants were sown separately for each species.
(§2) For the post-emergence treatment, the test plants were first grown to a height of 3 to 15 cm, depending on the plant habit, and only then treated with the active ingredients which had been suspended or emulsified in water. For this purpose, the test plants were either sown directly and grown in the same containers, or they were first grown separately as seedlings and transplanted into the test containers a few days prior to treatment.
(§3) Depending on the species, the test plants were kept at 10-25° C. or 20-35° C., respectively. The test period extended over 2 to 4 weeks. During this time, the test plants were tended, and their response to the individual treatments was evaluated.
(§4) Evaluation was carried out using a scale from 0 to 100. 100 means no emergence of the test plants, or complete destruction of at least the aerial moieties, and 0 means no damage, or normal course of growth. A good herbicidal activity is given at values of at least 70 and a very good herbicidal activity is given at values of at least 85.
(§5) The abovementioned methods were used to compare, in a greenhouse test, form A according to the invention and, as comparison the compound of formula (I) in amorphous form, in each case formulated as aqueous suspension concentrate (SC; 8.33 w/v %).

Erigeron canadensis = assay: as above; type: in vivo; details: assessment 20 DAT, aqueous SC 8.33 w/v %, scale 0-100
Excerpt: as §1, §2, §3, §4, §5

SMILES | Damage [%] (Lolium multiflorum; 2 g/ha a.i.) | Damage [%] (Lolium multiflorum; 4 g/ha a.i.) | Damage [%] (Lolium multiflorum; 8 g/ha a.i.) | Damage [%] (Lolium multiflorum; 16 g/ha a.i.) | Damage [%] (Erigeron canadensis; 2 g/ha a.i.) | Damage [%] (Erigeron canadensis; 4 g/ha a.i.)
COC(=O)C(OC)Oc1ccccc1Oc1cc(-n2c(=O)cc(C(F)(F)F)n(C)c2=O)c(F)cc1Br (stereo not drawn) [Form A, methyl 2-[2-[2-bromo-4-fluoro-5-[3-methyl-2,6-dioxo-4-(trifluoromethyl)pyrimidin-1-yl]phenoxy]phenoxy]-2-methoxy-acetate] | 50% | 70% | 90% | 90% | 60% | 100%
COC(=O)C(OC)Oc1ccccc1Oc1cc(-n2c(=O)cc(C(F)(F)F)n(C)c2=O)c(F)cc1Br (stereo not drawn) [amorphous, methyl 2-[2-[2-bromo-4-fluoro-5-[3-methyl-2,6-dioxo-4-(trifluoromethyl)pyrimidin-1-yl]phenoxy]phenoxy]-2-methoxy-acetate] | 15% | 25% | 75% | 80% | 30% | 70%
